Measured values: patent US4474761A, “Oligopeptides with specific inhibiting properties of collagen induced aggregation, process for preparing the same and pharmaceutical compositions containing them” (Choay S.A., priority 1980, dated 1984)
Where no end group is shown, it is not given here. [ ]: non-standard residue; d: D form. Hyp = O=C(O)[C@@H]1C[C@@H](O)CN1

Tested on: platelet membranes
Assay: Linkage of tritiated nonapeptide to platelet membranes (filtration)
Assay type: binding
Settings: for Linkage (%) after dissociation time: Table IX
Procedure: The study of the nature of the interaction between type III collagen and platelets is carried out in the presence of tritiated (labelled) nonapeptide of formula: […]
The complete platelets or the platelet membranes solubilized in triton (0.15%) are incubated in a physiological buffer of the type described above in the serotonin release test (in a total volume of 0.2 ml) at a temperature of 37° C. for 15 minutes. The incubation is carried out in presence of tritiated nonapeptide the specific activity of which is of […].
The nonapeptide fixed or linked to the platelet or to the membranes is separated from the free nonapeptide by filtration of the incubation medium through multiporous membranes having porosities of 0.8μ and 0.45μ respectively. The radio activity is directly determined on the filters and the percentage of linkages determined according to the following formula: [formula]
(c) Table VIII relates to the linkage specificity. It represents the linkage percentages between the platelet membranes and different peptides of the invention in the presence of various aggregation inducers (15 ng of peptide, 30 μg of platelet membrane).
The specificity of the linkage is assessed by the total displacement of the corresponding radio-activity by an excess of non labelled peptide of the invention. This excess corresponds to an amount of 100 to 1000 times more than the amount of non labelled peptide which is necessary to induce adhesion of the platelets.
Said reversibility has been studied in the presence of two concentrations of labelled (nona)peptide which are respectively of 3 and 6 ng, for 30 μg of platelet membranes. After the binding of the labelled nonapeptide to the membranes, the incubation media are diluted to the 80 volumes:
in the absence of non labelled (nona)peptide;
and in the presence of an excess of non labelled (nona)peptide (as indicated under c) for the reversibility test).
The percentage of linkage is then determined as a function of an incubation duration ranging from 0 to 15 minutes.
The reversibility is measured by the dissociation factor and the dissociation time.

## CCCCC/C=C\C/C=C\C/C=C\C/C=C\CCCC(=O)O [Arachidonic acid, reference compound]
Table VIII, Nonapeptide H^3 15 ng, platelet membranes 30 μg, agent 6 nM
  Linkage % of Nonapeptide H^3 in presence of agent: 4.1%

## CNCC(O)c1ccc(O)c(O)c1 (stereo not shown) [Adrenaline, reference compound]
Table VIII, Nonapeptide H^3 15 ng, platelet membranes 30 μg, agent 100 μg
  Linkage % of Nonapeptide H^3 in presence of agent: 5.4%

## Nc1ncnc2c1ncn2[C@@H]1O[C@H](COP(=O)(O)OP(=O)(O)O)[C@@H](O)[C@H]1O [ADP, reference compound]
Table VIII, Nonapeptide H^3 15 ng, platelet membranes 30 μg, agent 10^-2 M
  Linkage % of Nonapeptide H^3 in presence of agent: 4.3%

## GK[Hyp]GE[Hyp]GPK [Nonapeptide H^3]
Nonapeptide H^3 3 ng, 30 μg membranes, dilution 1/80, 0'
  Linkage (%) after dissociation time: 3.2%
Nonapeptide H^3 3 ng, dilution 1/80 + 100 μg of nonapeptide, 0'
  Linkage (%) after dissociation time: 3.2%
Nonapeptide H^3 3 ng, dilution 1/80 + 100 μg of nonapeptide, 2'
  Linkage (%) after dissociation time: 1%
Nonapeptide H^3 3 ng, dilution 1/80 + 100 μg of nonapeptide, 10'
  Linkage (%) after dissociation time: 0.5%
Nonapeptide H^3 3 ng, dilution 1/80 + 100 μg of nonapeptide, 15'
  Linkage (%) after dissociation time: 0.1%
Nonapeptide H^3 3 ng, dilution 1/80, 2'
  Linkage (%) after dissociation time: 1.75%
Nonapeptide H^3 3 ng, dilution 1/80, 5'
  Linkage (%) after dissociation time: 1.55%
Nonapeptide H^3 3 ng, dilution 1/80, 10'
  Linkage (%) after dissociation time: 1%
Nonapeptide H^3 3 ng, dilution 1/80, 15'
  Linkage (%) after dissociation time: 0.6%
Nonapeptide H^3 6 ng, dilution 1/80 + 100 μg of nonapeptide, 0'
  Linkage (%) after dissociation time: 5.9%
Nonapeptide H^3 6 ng, dilution 1/80 + 100 μg of nonapeptide, 2'
  Linkage (%) after dissociation time: 3%
Nonapeptide H^3 6 ng, dilution 1/80 + 100 μg of nonapeptide, 10'
  Linkage (%) after dissociation time: 1.5%
Nonapeptide H^3 6 ng, dilution 1/80 + 100 μg of nonapeptide, 15'
  Linkage (%) after dissociation time: 1%
Nonapeptide H^3 6 ng, dilution 1/80, 0'
  Linkage (%) after dissociation time: 5.9%
Nonapeptide H^3 6 ng, dilution 1/80, 2'
  Linkage (%) after dissociation time: 4.8%
Nonapeptide H^3 6 ng, dilution 1/80, 5'
  Linkage (%) after dissociation time: 3%
Nonapeptide H^3 6 ng, dilution 1/80, 10'
  Linkage (%) after dissociation time: 2.4%
Nonapeptide H^3 6 ng, dilution 1/80, 15'
  Linkage (%) after dissociation time: 1.5%
Table VI, Nonapeptide H^3 3 ng, proteic concentration 20 μg
  Linkage (%): 2.1%
Table VI, Nonapeptide H^3 3 ng, proteic concentration 40 μg
  Linkage (%): 3.8%
Table VI, Nonapeptide H^3 3 ng, proteic concentration 60 μg
  Linkage (%): 4.3%
Table VI, Nonapeptide H^3 3 ng, proteic concentration 80 μg
  Linkage (%): 4.6%
Table VI, Nonapeptide H^3 3 ng, proteic concentration 100 μg
  Linkage (%): 5.3%
Table VI, Nonapeptide H^3 30 ng, proteic concentration 20 μg
  Linkage (%): 3.5%
Table VI, Nonapeptide H^3 30 ng, proteic concentration 40 μg
  Linkage (%): 4.3%
Table VI, Nonapeptide H^3 30 ng, proteic concentration 60 μg
  Linkage (%): 5%
Table VI, Nonapeptide H^3 30 ng, proteic concentration 80 μg
  Linkage (%): 5.8%
Table VI, Nonapeptide H^3 30 ng, proteic concentration 100 μg
  Linkage (%): 6.15%
Table VI, Nonapeptide H^3 30 ng, proteic concentration 200 μg
  Linkage (%): 10.4%
Table VI, Nonapeptide H^3 30 ng, proteic concentration 400 μg
  Linkage (%): 13%
Table VI, Nonapeptide H^3 30 ng, proteic concentration 450 μg
  Linkage (%): 13.8%
Table VII, Nonapeptide H^3 3 ng
  Linkage (%): 1.6%
Table VII, Nonapeptide H^3 6 ng
  Linkage (%): 3.5%
Table VII, Nonapeptide H^3 12 ng
  Linkage (%): 5.5%
Table VII, Nonapeptide H^3 60 ng
  Linkage (%): 7.5%
Table VII, Nonapeptide H^3 300 ng
  Linkage (%): 10.5%
Table VIII, Nonapeptide H^3 15 ng, platelet membranes 30 μg, agent 0
  Linkage (%): 4%
